Experimental data reported in patent publication US12227488B2, “Small molecule degraders of Helios and methods of use” (DANA-FARBER CANCER INSTITUTE, INC., priority 2018, dated 2025).

How the values were obtained:
CRBN and Helios (IKZF2) = biological target: T1, CRBN and Helios (IKZF2) (Homo sapiens, UniProt Q96SW2+Q9UKS7); assay: TR-FRET dimerization assay (CRBN-IKZF2 ternary complex formation); type: binding; details: n=1
T1 construct: His (N); Strep (N)
Experimental: A focused library of imide analogs was synthesized and assessed for their ability to induce dimerization between CRBN and Helios in a time-resolved fluorescence energy transfer (TR-FRET) assay (FIG. 1A).
Prior to TR-FRET measurements being conducted, the reactions were incubated for 15 min at rt. […] The TR-FRET signal of each data point was extracted by calculating the 520/490 nm ratios. Data from single measurements (n=1), each calculated as an average of at least three technical replicates per well per experiment are presented in Table 1.
BODIPY-labeled CRBN in complex with Damage Specific DNA Binding Protein 1 (DDB1) harboring an internal deletion of the flexible BPB propeller (DDB1AB-CRBN) and in vitro biotinylated IKZF2 were treated with increasing concentrations of the indicated compounds in the presence of tracer amounts of Terbium-Streptavidin (Tb-SA). Compound-induced recruitment of IKZF2 to CRBN was quantified following the 520/490 TR-FRET ratio using a PHERAstar® plate reader (BMG) utilizing two synchronized PMTs to reduce background.

IKZF2 = assay: Cellular degradation assay, eGFP-IKZF2Δ fusion with mCherry reporter in Flp-In 293 cells; type: cell-based; details: for IKZF2 GFP/RFP Relative Abundance: 5 h incubation, n=1
Experimental: (§1) IKZF1Δ, IKZF2Δ, GSPT1 and SALL4 ZnF1-2 were subcloned into mammalian pcDNA5/FRT Vector (Ampicillin and Hygromycin B resistant) modified to contain MCS-eGFP-P2A-mCherry. […] Following 2-3 passage cycle, FACS (FACSAria™ II, BD) was used to enrich for cells expressing eGFP and mCherry. Cells stably expressing the IKZF1Δ, IKZF2Δ, GSPT1 or SALL4 Znf1-2 GFP fusions with mCherry reporter were seeded at 30-50% confluency in 384-well plates with 50 μL FluoroBrite™ DMEM media (Thermo Fisher Scientific, A18967) containing 10% FBS per well a day before compound treatment. Compound titrations were dispensed using a D300e Digital Dispenser (HP), normalized to 0.5% DMSO, and incubated with cells for 5 hours.
(§2) The resulting images were analyzed using CellProfiler™. A series of image analysis steps (‘image analysis pipeline’) was constructed. First, the red and green channels were aligned and cropped to target the middle of each well (to avoid analysis of heavily clumped cells at the edges), and a background illumination function was calculated for both red and green channels of each well individually and subtracted to correct for illumination variations across the 384-well plate from various sources of error. An additional step was then applied to the green channel to suppress the analysis of large auto fluorescent artifacts and enhance the analysis of cell specific fluorescence by way of selecting for objects under a given size, 30 A.U., and with a given shape, speckles. mCherry-positive cells were then identified in the red channel filtering for objects between 8-60 pixels in diameter and using intensity to distinguish between clumped objects. The green channel was then segmented into GFP positive and negative areas and objects were labeled as GFP positive if at least 40% of it overlapped with a GFP positive area. The fraction of GFP-positive cells/mCherry-positive cells in each well was then calculated, and the green and red images were rescaled for visualization.
(§3) The degradation assay was performed as described above. […] Degradation was measured after 5 h of compound treatment and the concentrations that lead to half degradation at 5 h (DC50,5 h) were calculated using the nonlinear fit variable slope model (GraphPad Software).

IKZF1 = biological target: T2, IKZF1 (Homo sapiens, UniProt Q13422); assay: Cellular degradation assay, eGFP-IKZF1Δ fusion with mCherry reporter in Flp-In 293 cells; type: cell-based; details: for IKZF1 GFP/RFP Relative Abundance: 5 h incubation, n=1
T2 construct: expressed in transfected cells; host or cells: Flp-In 293
Experimental: as §1, §2, §3

GSPT1 = GSPT1 (Homo sapiens, UniProt P15170+Q96SW2); assay: Cellular degradation assay, eGFP-GSPT1 fusion with mCherry reporter in Flp-In 293 cells; type: cell-based; design: expressed in transfected cells; host or cells: Flp-In 293; details: for GSPT1 GFP/RFP Relative Abundance: 5 h incubation, n=1
Experimental: as §1, §2, §3

[1] = compound concentration 6.6667E−05
[2] = compound concentration 6.6667E−06
[3] = compound concentration 6.6667E−07 (667 nM)
[4] = compound concentration 2.00E−05
[5] = compound concentration 2.00E−06
[6] = compound concentration 2.00E−07
[7] = half degradation at 5 h (DC50,5 h), triplicate, 11 point dose response

T1 sequence (Q96SW2 whole entry): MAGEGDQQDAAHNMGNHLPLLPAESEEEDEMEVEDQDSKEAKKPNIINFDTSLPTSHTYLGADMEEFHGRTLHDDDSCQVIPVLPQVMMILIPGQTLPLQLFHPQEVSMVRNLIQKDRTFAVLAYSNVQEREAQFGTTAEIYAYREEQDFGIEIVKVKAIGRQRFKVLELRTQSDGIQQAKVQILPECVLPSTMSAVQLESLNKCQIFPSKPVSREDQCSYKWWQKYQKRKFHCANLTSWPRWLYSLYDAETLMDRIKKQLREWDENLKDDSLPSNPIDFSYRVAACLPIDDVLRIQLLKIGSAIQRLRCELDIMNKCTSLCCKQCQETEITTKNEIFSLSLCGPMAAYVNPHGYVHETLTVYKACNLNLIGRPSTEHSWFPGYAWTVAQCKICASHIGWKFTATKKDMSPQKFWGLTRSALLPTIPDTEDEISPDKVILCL
T1 sequence (Q9UKS7 whole entry): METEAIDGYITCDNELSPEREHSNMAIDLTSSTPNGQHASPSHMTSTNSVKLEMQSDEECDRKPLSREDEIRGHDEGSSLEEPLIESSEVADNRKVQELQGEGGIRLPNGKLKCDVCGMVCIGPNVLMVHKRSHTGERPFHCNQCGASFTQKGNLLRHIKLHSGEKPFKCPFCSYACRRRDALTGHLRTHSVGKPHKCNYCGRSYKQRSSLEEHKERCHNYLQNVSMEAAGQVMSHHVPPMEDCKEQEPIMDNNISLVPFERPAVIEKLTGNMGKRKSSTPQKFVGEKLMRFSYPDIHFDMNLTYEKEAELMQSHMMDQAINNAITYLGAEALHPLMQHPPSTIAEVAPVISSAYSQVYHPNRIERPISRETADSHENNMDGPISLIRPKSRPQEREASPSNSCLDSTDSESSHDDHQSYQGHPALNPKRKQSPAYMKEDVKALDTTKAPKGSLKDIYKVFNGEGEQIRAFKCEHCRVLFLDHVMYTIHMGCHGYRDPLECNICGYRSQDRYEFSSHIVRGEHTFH
Chain of GSPT1 (P15170 whole entry, the tested form may be a part): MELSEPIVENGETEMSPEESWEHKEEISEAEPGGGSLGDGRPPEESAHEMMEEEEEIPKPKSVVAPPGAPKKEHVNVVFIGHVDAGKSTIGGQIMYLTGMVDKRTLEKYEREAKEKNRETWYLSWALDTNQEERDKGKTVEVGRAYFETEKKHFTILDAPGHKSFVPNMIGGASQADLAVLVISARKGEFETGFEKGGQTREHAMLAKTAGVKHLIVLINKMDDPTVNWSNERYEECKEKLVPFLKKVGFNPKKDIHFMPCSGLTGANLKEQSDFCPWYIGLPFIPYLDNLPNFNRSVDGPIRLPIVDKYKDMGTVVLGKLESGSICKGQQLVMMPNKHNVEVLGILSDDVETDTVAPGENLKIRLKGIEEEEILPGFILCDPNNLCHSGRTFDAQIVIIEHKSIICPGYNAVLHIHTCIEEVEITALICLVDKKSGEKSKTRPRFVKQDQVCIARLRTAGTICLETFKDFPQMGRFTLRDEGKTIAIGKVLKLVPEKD
Chain of GSPT1 (Q96SW2 whole entry, the tested form may be a part): as the sequence (Q96SW2 whole entry) above
Chain of GSPT1 (Q16531 whole entry partner, the tested form may be a part): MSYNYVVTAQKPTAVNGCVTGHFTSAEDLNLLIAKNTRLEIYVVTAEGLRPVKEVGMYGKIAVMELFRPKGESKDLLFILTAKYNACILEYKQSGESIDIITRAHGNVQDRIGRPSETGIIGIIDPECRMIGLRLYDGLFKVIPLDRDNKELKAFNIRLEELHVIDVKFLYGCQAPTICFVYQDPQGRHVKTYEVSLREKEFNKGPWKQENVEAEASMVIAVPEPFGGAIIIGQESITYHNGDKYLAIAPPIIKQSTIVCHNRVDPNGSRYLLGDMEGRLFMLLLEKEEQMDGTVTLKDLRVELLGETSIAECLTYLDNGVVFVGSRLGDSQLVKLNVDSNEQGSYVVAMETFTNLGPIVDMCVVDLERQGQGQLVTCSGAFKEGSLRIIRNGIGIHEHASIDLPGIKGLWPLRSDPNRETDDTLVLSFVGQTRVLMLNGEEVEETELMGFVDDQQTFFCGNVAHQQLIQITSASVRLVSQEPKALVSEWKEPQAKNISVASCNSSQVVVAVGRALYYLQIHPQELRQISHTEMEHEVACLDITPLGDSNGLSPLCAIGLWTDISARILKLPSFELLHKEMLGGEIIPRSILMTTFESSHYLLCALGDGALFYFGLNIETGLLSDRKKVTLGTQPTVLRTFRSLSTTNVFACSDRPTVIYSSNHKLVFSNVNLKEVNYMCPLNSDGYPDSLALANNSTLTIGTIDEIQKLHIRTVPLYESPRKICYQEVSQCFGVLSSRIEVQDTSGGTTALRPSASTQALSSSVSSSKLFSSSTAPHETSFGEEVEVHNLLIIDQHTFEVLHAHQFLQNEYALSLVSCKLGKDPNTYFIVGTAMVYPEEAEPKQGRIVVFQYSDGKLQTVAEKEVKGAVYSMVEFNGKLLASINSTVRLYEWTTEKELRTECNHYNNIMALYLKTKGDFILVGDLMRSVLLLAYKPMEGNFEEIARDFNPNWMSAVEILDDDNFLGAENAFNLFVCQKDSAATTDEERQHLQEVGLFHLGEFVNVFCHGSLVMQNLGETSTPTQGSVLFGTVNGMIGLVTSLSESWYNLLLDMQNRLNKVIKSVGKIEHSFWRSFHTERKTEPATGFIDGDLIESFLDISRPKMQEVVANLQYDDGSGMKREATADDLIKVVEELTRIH
T2 sequence (Q13422 83-213 isoform Q13422-7 limits assumed): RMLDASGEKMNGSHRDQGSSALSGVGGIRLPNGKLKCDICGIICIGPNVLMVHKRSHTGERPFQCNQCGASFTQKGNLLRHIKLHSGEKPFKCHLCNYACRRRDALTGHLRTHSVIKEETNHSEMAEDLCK
T2 sequence (Q96SW2 whole entry partner, the tested form may be a part): as the sequence (Q96SW2 whole entry) above
T2 sequence (Q16531 2-1140 partner limits assumed): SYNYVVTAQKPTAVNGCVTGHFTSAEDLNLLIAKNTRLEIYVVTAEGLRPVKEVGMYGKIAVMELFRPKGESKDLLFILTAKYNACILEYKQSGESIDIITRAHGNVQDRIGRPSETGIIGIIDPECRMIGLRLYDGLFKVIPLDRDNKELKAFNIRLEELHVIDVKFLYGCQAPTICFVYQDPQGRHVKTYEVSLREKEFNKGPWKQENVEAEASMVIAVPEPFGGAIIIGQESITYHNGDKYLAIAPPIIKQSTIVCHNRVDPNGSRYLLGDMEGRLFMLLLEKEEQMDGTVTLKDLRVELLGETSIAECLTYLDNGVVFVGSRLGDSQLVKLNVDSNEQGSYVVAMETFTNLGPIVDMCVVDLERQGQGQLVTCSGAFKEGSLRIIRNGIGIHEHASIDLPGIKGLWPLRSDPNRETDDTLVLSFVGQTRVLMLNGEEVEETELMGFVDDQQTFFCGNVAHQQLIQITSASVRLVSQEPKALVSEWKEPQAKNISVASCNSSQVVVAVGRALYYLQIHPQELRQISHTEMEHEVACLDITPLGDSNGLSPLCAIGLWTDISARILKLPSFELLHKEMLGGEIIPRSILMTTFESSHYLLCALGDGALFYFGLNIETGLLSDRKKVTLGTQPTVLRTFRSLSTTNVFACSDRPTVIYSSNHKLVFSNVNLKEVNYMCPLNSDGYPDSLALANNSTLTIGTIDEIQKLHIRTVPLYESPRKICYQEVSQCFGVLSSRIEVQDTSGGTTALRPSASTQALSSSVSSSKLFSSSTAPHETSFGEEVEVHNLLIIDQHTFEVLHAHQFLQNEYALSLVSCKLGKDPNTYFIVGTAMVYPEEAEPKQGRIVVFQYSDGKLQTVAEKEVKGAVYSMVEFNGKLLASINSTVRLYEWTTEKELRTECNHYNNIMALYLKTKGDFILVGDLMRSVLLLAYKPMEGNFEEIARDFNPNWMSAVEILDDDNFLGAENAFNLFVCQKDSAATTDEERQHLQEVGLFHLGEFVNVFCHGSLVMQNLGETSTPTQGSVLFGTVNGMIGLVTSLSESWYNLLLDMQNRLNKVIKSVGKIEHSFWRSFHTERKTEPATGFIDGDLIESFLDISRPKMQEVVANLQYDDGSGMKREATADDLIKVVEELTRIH

Cc1ccc(NC(=O)OCc2cccc(NC3=CC(=O)N(C4CCC(=O)NC4=O)C3=O)c2)cc1Cl (stereo not shown) [Compound 48, 3-((1-(2,6-dioxopiperidin-3-yl)-2,5-dioxo-2,5-dihydro-1H-pyrrol-3-yl)amino)benzyl (3-chloro-4-methylphenyl)carbamate]
TR-FRET-IKZF2 (Normalized to CC-885) (CRBN and Helios (IKZF2); [1]): 0.140
TR-FRET-IKZF2 (Normalized to CC-885) (CRBN and Helios (IKZF2); [2]): 0.079
TR-FRET-IKZF2 (Normalized to CC-885) (CRBN and Helios (IKZF2); [3]): 0.044
IKZF2 GFP/RFP Relative Abundance (IKZF2; [4]): 1.053
IKZF2 GFP/RFP Relative Abundance (IKZF2; [5]): 1.076
IKZF2 GFP/RFP Relative Abundance (IKZF2; [6]): 1.057
IKZF1 GFP/RFP Relative Abundance (IKZF1; [4]): 1.041
IKZF1 GFP/RFP Relative Abundance (IKZF1; [5]): 0.903
IKZF1 GFP/RFP Relative Abundance (IKZF1; [6]): 1.000
GSPT1 GFP/RFP Relative Abundance (GSPT1; [4]): 1.591
GSPT1 GFP/RFP Relative Abundance (GSPT1; [5]): 0.365
GSPT1 GFP/RFP Relative Abundance (GSPT1; [6]): 0.579

Cc1ccc(NC(=O)c2cccc(NC3=CC(=O)N(C4CCC(=O)NC4=O)C3=O)c2)cc1Cl (stereo not shown) [Compound 49, N-(3-chloro-4-methylphenyl)-3-((1-(2,6-dioxopiperidin-3-yl)-2,5-dioxo-2,5-dihydro-1H-pyrrol-3-yl)amino)benzamide]
TR-FRET-IKZF2 (Normalized to CC-885) (CRBN and Helios (IKZF2); [1]): 0.801
TR-FRET-IKZF2 (Normalized to CC-885) (CRBN and Helios (IKZF2); [2]): 0.690
TR-FRET-IKZF2 (Normalized to CC-885) (CRBN and Helios (IKZF2); [3]): 0.472
IKZF2 GFP/RFP Relative Abundance (IKZF2; [4]): 0.665
IKZF2 GFP/RFP Relative Abundance (IKZF2; [5]): 0.612
IKZF2 GFP/RFP Relative Abundance (IKZF2; [6]): 0.830
DC50 (IKZF2; [7]): 7.2 nM
potency of IKZF1 degradation, in words (IKZF1; Table 3 summary): most potent against IKZF1
IKZF1 GFP/RFP Relative Abundance (IKZF1; [4]): 0.268
IKZF1 GFP/RFP Relative Abundance (IKZF1; [5]): 0.187
IKZF1 GFP/RFP Relative Abundance (IKZF1; [6]): 0.314
DC50 (IKZF1; [7]): 1.9 nM
GSPT1 GFP/RFP Relative Abundance (GSPT1; [4]): 0.125
GSPT1 GFP/RFP Relative Abundance (GSPT1; [5]): 0.055
GSPT1 GFP/RFP Relative Abundance (GSPT1; [6]): 0.069
DC50 (GSPT1; [7]): > 1000 nM

Cc1ccc(NC(=O)Cc2cccc(NC3=CC(=O)N(C4CCC(=O)NC4=O)C3=O)c2)cc1Cl (stereo not shown) [Compound 50, N-(3-chloro-4-methylphenyl)-2-(3-((1-(2,6-dioxopiperidin-3-yl)-2,5-dioxo-2,5-dihydro-1H-pyrrol-3-yl)amino)phenyl)acetamide]
TR-FRET-IKZF2 (Normalized to CC-885) (CRBN and Helios (IKZF2); [1]): 1.011
TR-FRET-IKZF2 (Normalized to CC-885) (CRBN and Helios (IKZF2); [2]): 0.889
TR-FRET-IKZF2 (Normalized to CC-885) (CRBN and Helios (IKZF2); [3]): 0.848
IKZF2 GFP/RFP Relative Abundance (IKZF2; [4]): 0.188
IKZF2 GFP/RFP Relative Abundance (IKZF2; [5]): 0.195
IKZF2 GFP/RFP Relative Abundance (IKZF2; [6]): 0.267
IKZF1 GFP/RFP Relative Abundance (IKZF1; [4]): 0.073
IKZF1 GFP/RFP Relative Abundance (IKZF1; [5]): 0.068
IKZF1 GFP/RFP Relative Abundance (IKZF1; [6]): 0.093
GSPT1 GFP/RFP Relative Abundance (GSPT1; [4]): 0.645
GSPT1 GFP/RFP Relative Abundance (GSPT1; [5]): 0.702
GSPT1 GFP/RFP Relative Abundance (GSPT1; [6]): 0.643

Cc1ccc(NC(=O)Oc2cccc(NC3=CC(=O)N(C4CCC(=O)NC4=O)C3=O)c2)cc1Cl (stereo not shown) [Compound 51, 3-((1-(2,6-dioxopiperidin-3-yl)-2,5-dioxo-2,5-dihydro-1H-pyrrol-3-yl)amino)phenyl (3-chloro-4-methylphenyl)carbamate]
TR-FRET-IKZF2 (Normalized to CC-885) (CRBN and Helios (IKZF2); [1]): 0.037
TR-FRET-IKZF2 (Normalized to CC-885) (CRBN and Helios (IKZF2); [2]): 0.032
TR-FRET-IKZF2 (Normalized to CC-885) (CRBN and Helios (IKZF2); [3]): 0.017
IKZF2 GFP/RFP Relative Abundance (IKZF2; [4]): 1.083
IKZF2 GFP/RFP Relative Abundance (IKZF2; [5]): 1.044
IKZF2 GFP/RFP Relative Abundance (IKZF2; [6]): 1.024
IKZF1 GFP/RFP Relative Abundance (IKZF1; [4]): 0.861
IKZF1 GFP/RFP Relative Abundance (IKZF1; [5]): 1.001
IKZF1 GFP/RFP Relative Abundance (IKZF1; [6]): 1.026
GSPT1 GFP/RFP Relative Abundance (GSPT1; [4]): 1.680
GSPT1 GFP/RFP Relative Abundance (GSPT1; [5]): 0.829
GSPT1 GFP/RFP Relative Abundance (GSPT1; [6]): 0.775

Cc1ccc(NC(=O)N(C)Cc2cccc(NC3=CC(=O)N(C4CCC(=O)NC4=O)C3=O)c2)cc1Cl (stereo not shown) [Compound 52, 3-(3-chloro-4-methylphenyl)-1-(3-((1-(2,6-dioxopiperidin-3-yl)-2,5-dioxo-2,5-dihydro-1H-pyrrol-3-yl)amino)benzyl)-1-methylurea]
TR-FRET-IKZF2 (Normalized to CC-885) (CRBN and Helios (IKZF2); [1]): 1.559
TR-FRET-IKZF2 (Normalized to CC-885) (CRBN and Helios (IKZF2); [2]): 1.367
TR-FRET-IKZF2 (Normalized to CC-885) (CRBN and Helios (IKZF2); [3]): 1.205
IKZF2 GFP/RFP Relative Abundance (IKZF2; [4]): 0.058
IKZF2 GFP/RFP Relative Abundance (IKZF2; [5]): 0.059
IKZF2 GFP/RFP Relative Abundance (IKZF2; [6]): 0.062
IKZF1 GFP/RFP Relative Abundance (IKZF1; [4]): 0.103
IKZF1 GFP/RFP Relative Abundance (IKZF1; [5]): 0.092
IKZF1 GFP/RFP Relative Abundance (IKZF1; [6]): 0.080
GSPT1 GFP/RFP Relative Abundance (GSPT1; [4]): 0.308
GSPT1 GFP/RFP Relative Abundance (GSPT1; [5]): 0.815
GSPT1 GFP/RFP Relative Abundance (GSPT1; [6]): 0.787
